# Data published in patent US9353382B2, “Process, vectors and engineered cell lines for enhanced large-scale transfection” (National Research Council of Canada, priority 2008, dated 2016).
# Key:
# [1] = test system: CHO-EBNA1c (clone 3E7) cells; assay: Effect of PKB (AKT) and valproic acid on transient gene expression (SEAP); format: cell-based, Chinese Hamster; settings: 0.25 mM VPA added 24 hours post-transfection; days 5 to 8 post-transfection
# Protocol: (§1) Secreted alkaline phosphatase activity determination: SEAP activity is measured as previously described using the colorimetric substrate paranitrophenyl phosphate (Durocher et al, 2000).
# Referring to FIG. 10, the effect of PKB (AKT) and valproic acid (VPA) on transient gene expression in CHO-EBNA1c (clone 3E7) cells is illustrated. The CHO-EBNA1c cells were transfected with a mixture of SEAP-encoding oriP plasmids (pTT-SEAP) and stuffer DNA or pTT-AKTdd vector (AKTdd is a dominant-positive mutant of AKT). In some cases, 0.25 mM VPA was added 24 hours post-transfection. SEAP activity (ΔA410/min) was measured at days 5 to 8 post-transfection.
# [2] = test system: HEK293-EBNA1t (clone 6E) cells; assay: Effect of FGF2 co-expression on transient SEAP expression in HEK293-EBNA1t cells; format: cell-based, human; settings: 25% pTT-SEAP, 0-70% FGF2 plasmid; 7 days post-transfection
# Protocol: as §1
# (§2) Referring to FIG. 9, graphs are shown illustrating the effect of FGF2 (bFGF) co-expression on transient gene expression in HEK293-EBNA1t (clone 6E) cells (upper panel) and CHO-EBNA1c (clone 3E7) cells (lower panel). The HEK293-EBNA1t and CHO-EBNA1c cells were transfected with 25% pTT-SEAP vector and increasing amounts (0%, 15%, 30%, 45%, 60% and 70%) of FGF2-encoding pTT plasmid (the overall content of DNA was kept constant with non-coding stDNA). SEAP activity (OD/min at 410 nm) was measured in the supernatant 7 days post-transfection. From the upper panel it is evident that SEAP activity in HEK293-EBNA1t cells is decreased by co-expression of FGF2. From the lower panel it is evident that SEAP activity in CHO-EBNA1c cells is increased by co-expression of FGF2. […] Increased productivity in CHO cells may be due to a FGF-induced rRNA synthesis.
# [3] = test system: CHO-EBNA1c (clone 3E7) cells; assay: Effect of FGF2 co-expression on transient SEAP expression in CHO-EBNA1c cells; format: cell-based, Chinese Hamster; settings: 25% pTT-SEAP, 0-70% FGF2 plasmid; 7 days post-transfection
# Protocol: as §1, §2
compound,measurement,setting,value
CCCC(CCC)C(=O)O [valproic acid],effect on transient gene expression (SEAP activity),[1],increases transient gene expression
FGF2,SEAP activity on co-expression of FGF2,[2],decreased
same,SEAP activity on co-expression of FGF2,[3],increased
